{"source": "paper PMC6220303", "about": "(EMBO Molecular Medicine, 2018)", "key": {"[1]": {"tested_on": "CHO cells (wild‐type APP)", "assay": "Cellular Aβ40 release assay", "format": "cell-based", "details": "Cricetulus griseus, inhibition of Aβ40 release, six batches, each in triplicate", "description": "(§1) Cellular Aβ release assays were done in CHO cells stably transfected with human wild‐type and human APP were done as described (Neumann et al, 2015). Determinations of logD, pKa, and binding to brain homogenates were done internally at Novartis, Basel. Plasma protein binding was determined by equilibrium dialysis using diluted plasma from the corresponding species. MDR‐1‐MDCK cells were obtained from Prof. A. Berns, Netherlands Cancer Institute, Amsterdam NL, and bi‐directional transport measurements were done as described (Rueeger et al, 2011). Receptor binding assays were done against an internal receptor panel and externally at Ricerca Biosciences, Peitou, Taiwan. In vitro binding and cellular patch clamp assays for hERG were done at Preclinical Safety, Novartis, Basel."}, "[2]": {"tested_on": "CHO cells (“Swedish” APP)", "assay": "Cellular Aβ40 release assay", "format": "cell-based", "details": "Cricetulus griseus, inhibition of Aβ40 release, three batches, triplicates", "description": "as §1"}, "Aβ40 in rat brain tissue": {"tested_on": "Aβ40 in rat brain tissue", "assay": "Aβ40 in rat brain and CSF after single oral dose", "format": "in vivo", "description": "Therefore, we measured Aβ40 in rat brain tissue 4 h after oral administration over a range of doses. […] In addition, the effect‐over‐time curves for brain and CSF almost completely superimposed, showing that Aβ pharmacodynamics in CSF mirrors very well that in brain tissue.\nExperiments were carried out in accordance with the guidelines of the Swiss Federal and Cantonal veterinary offices for care and use of laboratory animals or the Canadian Council on Animal Care (Ottawa, Canada), and the ARRIVE guidelines. Studies described in this report were approved by the Swiss Cantonal Veterinary Authority of Basel City, Switzerland, and performed according to animal license numbers BS‐2063, BS‐2077, and BS‐1094. Methods employed in PK/PD studies in rats and dogs are described (Neumann et al, 2015).\n(§2) Electrochemiluminescence immunoassays (Mesoscale Diagnostics, Rockville, MD, USA) were used to determine Aβ38, Aβ40, Aβ42, sAPPα, and sAPPβ. For studies in normal mice and rats, the endogenous Aβ40 was extracted from the brain homogenate with 1% Triton X‐100, and the 4G8‐based assay kit was used for quantification according to the manufacturer's instructions. CSF was collected from the cisterna magna and also analyzed using the 4G8 kit. For studies in dogs, CSF was collected via a ventricular port, and the 6E10‐based Mesoscale Diagnostics kit for Aβ was used. For studies in APP23 mice, Aβ40 and Aβ42 were determined after extraction with 70% formic acid and subsequent neutralization."}, "[3]": {"tested_on": "Aβ40 in APOE4‐TR mouse forebrain", "assay": "Forebrain Aβ40 in APOE4-TR mice", "format": "in vivo", "details": "highest dose of 17 mg/kg (30 μmol/kg), 4 h after dosing", "description": "Data were analyzed with one way ANOVA and Dunnett's multiple comparison test. • B Distribution of APOE4 genotypes in the Phase IIa study versus their baseline Aβ42/40 ratios. The dashed line at Aβ42/40 ratio of 0.09 represents a cutoff, which separates a normal ratio from an abnormally low ratio. • C Comparison of CSF Aβ40 reduction in APOE4 non‐carriers and APOE4 carriers (mean ± SD). • D Comparison of CSFAβ40 reduction in participants with Aβ42/40 ≥ 0.09 and Aβ42/40 < 0.09 (mean ± SD). • E Comparison of Aβ42/40 ratio at baseline and at day 91 for all participants in the placebo, 35 mg, and 85‐mg dose group (mean ± SD, n = 25/group). • F Change of Aβ42/40 ratio for all participants with Aβ42/40 ≤ 0.09 at baseline; bars represent mean ± SD. […] Data were analyzed with one way ANOVA and Dunnett's multiple comparison test. […]\nas §2, with “For studies in dogs, CSF was collected via a ventricular port, and the 6E10‐based Mesoscale Diagnostics kit for Aβ was used.” left out"}, "healthy participants": {"tested_on": "healthy participants", "assay": "Safety and tolerability in early clinical studies", "format": "in vivo, human", "details": "for dose up to which no dose-limiting safety or tolerability findings were observed: participants ≥ 60 years", "description": "Only the single ascending dose studies were performed in adults 18–55 or 20–45 years of age, whereas the participants in all subsequent single and multiple dose studies were cognitively normal male and post‐menopausal female subjects ≥ 60 years of age, similar to the age range of our target population in the Generation Program.\n(§3) For further details, see the Appendix Table S10 in Appendix and the accompanying clinical protocols synopsis (Appendix Table S11)."}, "[4]": {"tested_on": "healthy participants ≥ 60 years", "assay": "Adverse events after single dose (Appendix Table S6)", "format": "in vivo, human", "source_text": "as §3\n(§4) Appendix Table S3. Overview of completed clinical studies with CNP520\n(§5) Study description Population No. of Participants Dose/Frequency […]\n(§6) First-in-human, randomized, 18-55 yrs 38 / 14 Single dose (10, 30, 90, […]\n(§7) controlled, single and multiple CNP520 vs placebo) ascending oral dose study to Single dose (10, 90, 300,"}, "[5]": {"tested_on": "healthy participants ≥ 60 years", "assay": "Adverse events after once-daily dosing over two weeks (Appendix Table S7)", "format": "in vivo, human", "source_text": "as §3, §4, §5, §6, §7"}, "[6]": {"target": "Monoamine transporter VMAT2 (Oryctolagus cuniculus, UniProt G1T2K3)", "sequence (G1T2K3 1-509)": "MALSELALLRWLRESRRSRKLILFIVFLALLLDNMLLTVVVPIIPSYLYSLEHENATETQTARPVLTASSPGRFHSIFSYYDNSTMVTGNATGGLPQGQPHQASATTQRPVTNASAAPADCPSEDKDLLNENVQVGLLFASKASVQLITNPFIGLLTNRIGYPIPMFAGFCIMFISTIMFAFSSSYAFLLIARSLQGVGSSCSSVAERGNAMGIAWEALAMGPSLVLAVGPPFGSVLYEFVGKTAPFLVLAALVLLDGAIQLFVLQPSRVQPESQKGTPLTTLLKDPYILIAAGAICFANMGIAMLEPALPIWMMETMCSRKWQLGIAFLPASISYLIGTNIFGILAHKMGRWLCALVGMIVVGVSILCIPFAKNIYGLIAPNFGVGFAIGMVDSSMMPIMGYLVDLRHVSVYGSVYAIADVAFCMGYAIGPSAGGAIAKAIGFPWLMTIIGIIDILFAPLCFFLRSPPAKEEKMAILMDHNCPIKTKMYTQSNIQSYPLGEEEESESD", "assay": "Receptor panel binding", "design": "species or system Rabbit", "details": "read-out: Inhibition at 10 µM", "description": "as §1"}, "[7]": {"tested_on": "Calcium channel L-type, phenylalkylamine site", "assay": "Receptor panel binding", "design": "species or system Rat", "description": "as §1"}, "[8]": {"tested_on": "Imidazoline I2 receptor central", "assay": "Receptor panel binding", "design": "species or system Rat", "description": "as §1"}, "[9]": {"tested_on": "Sodium channel, binding site 2", "assay": "Receptor panel binding", "design": "species or system Rat", "description": "as §1"}}}
{"smiles": "C[C@@]1(c2nc(NC(=O)c3ncc(C(F)(F)F)cc3Cl)ccc2F)CO[C@@](C)(C(F)(F)F)C(N)=N1", "note": "[CNP520]", "values": [{"measurement": "IC50", "setting": "[1]", "value": "2.8 ± 0.2", "unit": "nM"}, {"measurement": "IC50", "setting": "[2]", "value": "44 ± 0.4", "unit": "nM"}, {"measurement": "Aβ40 reduction in rat brain and CSF", "setting": "Aβ40 in rat brain tissue; 24 h after single oral 30 μmol/kg (15.4 mg/kg) dose", "value": "~ 50%"}, {"measurement": "ED50", "setting": "Aβ40 in rat brain tissue; Rattus norvegicus, read-out: ED50, oral dose required for 50% lowering of rat brain Aβ40, 4 h after oral administration", "value": "2.4 ± 0.31", "unit": "mg/kg"}, {"measurement": "reduction of Aβ40 in rat brain tissue compared to untreated controls", "setting": "Aβ40 in rat brain tissue; highest dose, 4 h after oral administration, mean ± SD", "value": "89.3 ± 4.5", "unit": "%"}, {"measurement": "reduction in Aβ40", "setting": "[3]", "value": 77, "unit": "%"}, {"measurement": "skin-related AEs, mostly driven by pruritus", "setting": "healthy participants; 3-month study, 4% for placebo", "value": 18, "unit": "%"}, {"measurement": "abuse potential", "setting": "healthy participants; clinical studies", "value": "no signal for abuse potential"}, {"measurement": "dose up to which no dose-limiting safety or tolerability findings were observed", "setting": "healthy participants; for 2 weeks (maximum multiple dose tested)", "value": "≤ 300", "unit": "mg"}, {"measurement": "dose up to which no dose-limiting safety or tolerability findings were observed", "setting": "healthy participants; for 3 months", "value": "up to 85 mg"}, {"measurement": "dose up to which no dose-limiting safety or tolerability findings were observed", "setting": "healthy participants; single dose", "value": "up to 750 mg"}, {"measurement": "AE incidence: Blood and lymphatic system disorders", "setting": "[4]; single dose 300 mg, N = 10", "value": "1 (10.0) n (%)"}, {"measurement": "AE incidence: Cardiac disorders", "setting": "[4]; single dose 300 mg, N = 10", "value": "1 (10.0) n (%)"}, {"measurement": "AE incidence: Gastrointestinal disorders", "setting": "[4]; single dose 300 mg, N = 10", "value": "4 (40.0) n (%)"}, {"measurement": "AE incidence: General disorders and administration site conditions", "setting": "[4]; single dose 300 mg, N = 10", "value": "3 (30.0) n (%)"}, {"measurement": "AE incidence: Nervous system disorders", "setting": "[4]; single dose 300 mg, N = 10", "value": "4 (40.0) n (%)"}, {"measurement": "AE incidence: Renal and urinary disorders", "setting": "[4]; single dose 300 mg, N = 10", "value": "0 (0.0) n (%)"}, {"measurement": "AE incidence: Respiratory, thoracic and mediastinal disorders", "setting": "[4]; single dose 300 mg, N = 10", "value": "2 (20.0) n (%)"}, {"measurement": "AE incidence: Skin and subcutaneous tissue disorders", "setting": "[4]; single dose 300 mg, N = 10", "value": "3 (30.0) n (%)"}, {"measurement": "Participants with at least one AE", "setting": "[4]; single dose 300 mg, N = 10", "value": "10 (100.0) n (%)"}, {"measurement": "AE incidence: Blood and lymphatic system disorders", "setting": "[4]; single dose 750 mg, N = 11", "value": "0 (0.0) n (%)"}, {"measurement": "AE incidence: Cardiac disorders", "setting": "[4]; single dose 750 mg, N = 11", "value": "0 (0.0) n (%)"}, {"measurement": "AE incidence: Gastrointestinal disorders", "setting": "[4]; single dose 750 mg, N = 11", "value": "3 (27.3) n (%)"}, {"measurement": "AE incidence: General disorders and administration site conditions", "setting": "[4]; single dose 750 mg, N = 11", "value": "3 (27.3) n (%)"}, {"measurement": "AE incidence: Nervous system disorders", "setting": "[4]; single dose 750 mg, N = 11", "value": "7 (63.6) n (%)"}, {"measurement": "AE incidence: Renal and urinary disorders", "setting": "[4]; single dose 750 mg, N = 11", "value": "1 (9.1) n (%)"}, {"measurement": "AE incidence: Respiratory, thoracic and mediastinal disorders", "setting": "[4]; single dose 750 mg, N = 11", "value": "0 (0.0) n (%)"}, {"measurement": "AE incidence: Skin and subcutaneous tissue disorders", "setting": "[4]; single dose 750 mg, N = 11", "value": "1 (9.1) n (%)"}, {"measurement": "Participants with at least one AE", "setting": "[4]; single dose 750 mg, N = 11", "value": "9 (81.8) n (%)"}, {"measurement": "AE incidence: Respiratory, thoracic and mediastinal disorders", "setting": "[5]; 10 mg once daily, N = 9", "value": "1 (11.1) n (%)"}, {"measurement": "Participants with any AE(s)", "setting": "[5]; 10 mg once daily, N = 9", "value": "6 (66.7) n (%)"}, {"measurement": "AE incidence: Renal and urinary disorders", "setting": "[5]; 30 mg once daily, N = 9", "value": "0 (0.0) n (%)"}, {"measurement": "AE incidence: Ear and labyrinth disorders", "setting": "[5]; 300 mg once daily, N = 8", "value": "0 (0.0) n (%)"}, {"measurement": "inhibition at 10 µM", "setting": "[6]", "value": 79, "unit": "%"}, {"measurement": "inhibition at 10 µM", "setting": "[7]", "value": 78, "unit": "%"}, {"measurement": "inhibition at 10 µM", "setting": "[8]", "value": 61, "unit": "%"}, {"measurement": "inhibition at 10 µM", "setting": "[9]", "value": 104, "unit": "%"}]}
